Experiment in all cases: growth of human tumour cells (NCI), 48 h
Experiment [1] relates to UACC-257 melanoma.
Experiment [2] concerns CAKI-1 renal.
The test system of experiment [3] is LOX IMVI melanoma.
The subject of experiment [4] is SW-620 colon.
In experiment [5] the test system is HL-60(TB) leukemia.
For experiment [6], the system named is HOP-92 NSCLC.
The test system of experiment [7] is SK-MEL-28 melanoma.
The subject of experiment [8] is A498 renal.
Experiment [9] has as its system SN12C renal.
Experiment [10] deals with OVCAR-3 ovarian.

Values joined by “and” are separate entries in the source; they are usually repeats but may differ in a detail not shown here. Equal entries are not always repeated.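 Following 48 hours of exposure in 96-well plates, responses at five concentrations were used to interpolate endpoints linearly. GI50: concentration for 50% inhibition of growth. TGI is the concentration that stops growth completely.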 Bounds are passed on as bounds.

In the case of `C=CCN(CC=C)CC(C(C)=O)C(c1ccccc1)c1c(O)c2ccccc2oc1=O` (centres undefined), the TGI in experiment [1], in [2], in [3], in experiment [4], in experiment [5] and in experiment [6] was over 100 µM throughout. Moreover, the TGI in experiment [7], in experiment [8] and in [9] was over 100 µM throughout.
For `CC1CC2(CCC1OCc1ccccc1)OCCO2` (centres undefined), the TGI in experiment [1], in experiment [2], in [3], in experiment [4], in [5] and in experiment [6] was over 100 µM each time. Moreover, the TGI in experiment [10], in experiment [8] and in [9] was over 100 µM each time.
In the case of `Cc1ccc(Oc2nc3ccccc3cc2-c2nnc(Cn3c(COc4ccccc4)nc4ccccc43)o2)cc1`, the GI50 in [1] is 3.28 µM; in experiment [2], 2.29 µM; in [3] it was 1.59 µM; in experiment [4], 1.08 µM; in experiment [5], 2.85 µM; in experiment [6], 1.27 µM. Also, the results for the GI50 in experiment [10], in experiment [8] and in [9] were 2.41 µM, 0.409 µM and 2.76 µM, respectively. Also, the TGI was 14.9 µM in experiment [1]; 14.9 µM in experiment [2]; 4.32 µM in [3]; 4.79 µM in experiment [4]; 7.88 µM in [5]; 5.37 µM in experiment [6]. Further, the TGI in [10] was 6.65 µM; in experiment [8], 18.7 µM; in [9], 11.9 µM.
Turning to `COc1ccc(-n2c3c(c4c(CN(C)C)c(O)c(C)cc42)CCc2ccccc2C3=O)cc1`, the GI50 is 78.1 µM in experiment [1]; 24.5 µM in [2]; 17.1 µM in experiment [3]; 32.5 µM in experiment [4]; 12.3 µM in experiment [5]; 41.9 µM in experiment [6]. Moreover, the GI50 in [10] was 34.2 µM; in experiment [8], 60 µM; in experiment [9], 29.6 µM. The TGI in experiment [1] was over 100 µM; in experiment [2], over 100 µM; in experiment [3], 45.2 µM; in experiment [4], over 100 µM; in experiment [5], 43.6 µM; in experiment [6], over 100 µM. Besides, the TGI was 97.2 µM in experiment [10], over 100 µM in [8] and over 100 µM in experiment [9].
Take `COc1ccc2[nH]cc(-c3nc(-c4c[nH]c5ccncc45)cs3)c2c1`: the GI50 is 1.93 µM in [1]; 2.86 µM in experiment [2]; 1.93 µM in [4]; 1.51 µM in experiment [5]; 1.79 µM in experiment [6]; 2.18 µM in experiment [10]. Further, the GI50 in experiment [7] was 1.94 µM; in experiment [8], 4.91 µM; in experiment [9], 1.83 µM. The TGI in experiment [1] was determined as 3.51 µM; in [2], 9.13 µM; in experiment [4], 3.84 µM; in [5], 3.47 µM; in [6], 3.75 µM; in experiment [10] it was 4.07 µM. Further, the TGI in experiment [7] is 3.44 µM; in experiment [8], 16.1 µM; in experiment [9], 3.61 µM.
With `N=C(N)c1ccc(-c2ccc(-c3ccc(F)cc3)o2)o1`, the GI50 was 1.98 µM in experiment [1]; 1.71 µM in experiment [2]; 0.943 µM in [4]; 1.8 µM in [5]; 1.21 µM in experiment [6]; 1.84 µM in experiment [10]. The GI50 in experiment [7] was 1.63 µM; in [8] it was 1.9 µM; in experiment [9], 1.8 µM. The TGI was 3.69 µM in experiment [1]; 3.56 µM in experiment [2]; 2.38 µM in experiment [4]; 4.4 µM in experiment [5]; 2.95 µM in [6]; 4.16 µM in [10]. Further, the TGI in experiment [7] was found to be 3.18 µM; in experiment [8] it was 5.95 µM; in experiment [9], 3.65 µM.
Consider `CCOC(=O)/C(=C\c1ccc(F)cc1)C(C)=O`, for which the TGI in [1] is 44.7 µM; in experiment [2], over 100 µM; in experiment [3], 36.7 µM; in experiment [4] it was over 100 µM; in [5] it was 53.2 µM; in experiment [6], 44.3 µM. Also, the TGI in experiment [10] is over 100 µM; in experiment [8], 34.9 µM; in experiment [9], over 100 µM.
Consider `COc1ccc(-c2nc3sc4c(c3c(=O)[nH]2)CCCC4)c2ccccc12`, for which the GI50 was 1.56 µM and 4.95 µM in experiment [1]; 0.45 µM in [2]; 0.301 µM in experiment [5]; 0.0957 µM and 0.599 µM in experiment [6]; 0.468 µM in experiment [7]; 0.514 µM and 0.0702 µM in experiment [9]. Moreover, the TGI in [1] is over 100 µM; in experiment [3], over 100 µM; in experiment [4], over 100 µM; in experiment [5], 2.04 µM; in [6] it was 2.37 µM and 7.9 µM; in [8] it was 0.765 µM and 0.0871 µM. Further, the TGI in [9] is over 100 µM.
For the compound `NC1=NC(c2ccc(F)cc2)C2=C(N1)c1ccc3ccccc3c1OCC2` (centres undefined), the GI50 was 34.2 µM in experiment [1]; 12.3 µM in experiment [2]; over 100 µM in experiment [3]; over 100 µM in experiment [5]; 36.3 µM in [6]; 2.73 µM in experiment [10]. For the same compound, the GI50 is 18.6 µM in experiment [7], 10.8 µM in experiment [8] and 22.2 µM in [9]. For the same compound, the TGI in experiment [1] was over 100 µM; in experiment [2], 70.6 µM; in [3], over 100 µM; in [5], over 100 µM; in experiment [6] it was over 100 µM; in experiment [10], over 100 µM. Besides, the TGI in experiment [7], in experiment [8] and in [9] was over 100 µM in each case.
For `CNC(=O)OCc1[nH]ccc2c(C)c3nc4ccc(OC)cc4c3cc12`, the TGI in experiment [1] was over 100 µM; in experiment [2], over 100 µM; in experiment [4], over 26.9 µM; in experiment [5], 19 µM; in [6], over 100 µM; in [10], over 67.8 µM. Further, the TGI in experiment [7] was over 81 µM; in experiment [8], 30.7 µM; in experiment [9] it was over 100 µM.

For the origin of these results see PubChem BioAssay (NCI).
